Source: ChEMBL document CHEMBL1137850, “Pyridoxine as a template for the design of antiplatelet agents” (2004)
“And” between values parts separate entries of the source, which are not always exact repeats. Equal values may be shown once.

Key:
[1] = Percent reduction of thrombin receptor activating peptide (12 uM) induced platelet aggregation was determined at 0.5 mM concentration; type: functional, Homo sapiens
[2] = Percent reduction of collagen (5 ug/mL) induced platelet aggregation was determined at 0.5 mM concentration; type: functional, Homo sapiens
[3] = Percent reduction of collagen (1 ug/mL) induced platelet aggregation was determined at 0.5 mM concentration; type: functional, Homo sapiens
[4] = Percent reduction of ADP (4 uM) induced platelet aggregation was determined at 0.5 mM concentration; type: functional, Homo sapiens
Rattus norvegicus [5] = assay: Percent reduction in infarct volume after treatment at 40.0 mg/kg dose; type: functional
Rattus norvegicus [6] = assay: Percent reduction in infarct size after bolus injection at 0.07 mol/kg dose; type: functional
[7] = Percent reduction of ADP (4 uM) induced platelet aggregation was determined at 0.25 mM concentration; type: functional, Homo sapiens
Rattus norvegicus [8] = assay: Percent reduction in infarct volume after treatment at 10.0 mg/kg dose; type: functional
Rattus norvegicus [9] = assay: Percent reduction in infarct volume after treatment at 20.0 mg/kg dose; type: functional
[10] = Percent reduction of collagen (5 ug/mL) induced platelet aggregation was determined at 0.25 mM concentration; type: functional, Homo sapiens
[11] = Percent reduction of collagen (1 ug/mL) induced platelet aggregation was determined at 0.25 mM concentration; type: functional, Homo sapiens
Rattus norvegicus [12] = assay: Percent reduction in infarct volume after treatment at 0.0 mg/kg dose; type: functional
[13] = Percent reduction of thrombin receptor activating peptide (12 uM) induced platelet aggregation was determined at 0.25 mM concentration; type: functional, Homo sapiens
Rattus norvegicus [14] = assay: Percent reduction in infarct size after bolus injection at 0.1 mol/kg dose; type: functional

| SMILES | Reduction [1] [%] | Reduction [2] [%] | Reduction [3] [%] | Reduction [4] | Reduction (Rattus norvegicus [5]) [%] | Reduction (Rattus norvegicus [6]) [%] | Reduction [7] [%] | Reduction (Rattus norvegicus [8]) [%] | Reduction (Rattus norvegicus [9]) [%] | Reduction [10] [%] | Reduction [11] [%] | Reduction (Rattus norvegicus [12]) [%] | Reduction [13] [%] | Reduction (Rattus norvegicus [14]) [%] |
| --- | --- | --- | --- | --- | --- | --- | --- | --- | --- | --- | --- | --- | --- | --- |
| Cc1ncc(Cn2nnc(N)n2)c(CO)c1O | 2 | 0 | 1 | 0% |  |  |  |  |  |  |  |  |  |  |
| Cc1ncc(CNc2ccc(-c3ccc(C(=N)N)cc3)cc2)c(CO)c1O |  | 30 | 93 | 82% and 66% | 2.9 | 30 | 63 | 30.5 | 26.5 | 1 | 41 | 40 | 93 |  |
| Cc1ncc(CNc2ccc(C(=N)N)cc2)c(CO)c1O | 88 | 24 | 10 | 79% |  |  |  |  |  |  |  |  |  |  |
| Cc1ncc(C/N=C(\S)Nc2ccc(F)cc2)c(CO)c1O | 6 | 4 | 23 | 18% |  |  |  |  |  |  |  |  |  |  |
| Cc1ncc(Cn2ccnc2C)c(CO)c1O | 3 | 1 | 0 | 1% |  |  |  |  |  |  |  |  |  |  |
| Cc1ncc(CO)c(CO)c1O [PYRIDOXINE] | 0 | 4 | 4 | 0% |  |  |  |  |  |  |  |  |  |  |
| Cc1ncc(Cn2cnnn2)c(CO)c1O | 7 | 0 | 6 | 4% |  |  |  |  |  |  |  |  |  |  |
| Cc1ncc(COP(=O)(O)O)c(C=O)c1O [PYRIDOXAL PHOSPHATE ANHYDROUS] | 0 | 0 | 0 | 0% |  |  |  |  |  |  |  |  |  | 31 |
| Cc1ncc(CNC(=O)Nc2ccc(F)cc2)c(CO)c1O | 0 | 1 | 0 | 0% |  |  |  |  |  |  |  |  |  |  |
